Experimental data from patent US7183415B2, “Quinoline compound” (Takeda Pharmaceutical Company Limited, priority 2001, dated 2007).

Row | melting point [°C] | SMILES
1 | 192 to 193 | COc1ccc(COc2ccc(C(=O)Nc3ccc4cc(CN5CCCC5)cnc4c3C)cc2)cc1 [Example 126, 4-[(4-methoxybenzyl)oxy]-N-[8-methyl-3-(1-pyrrolidinylmethyl)-7-quinolinyl]benzamide]
2 | 176 to 178 | Cc1c(NC(=O)c2ccc(-c3ccc(F)cc3)cc2)ccc2cc(CN3CCOCC3)cnc12 [Example 198, 4′-fluoro-N-[8-methyl-3-(4-morpholinylmethyl)-7-quinolinyl][1,1′-biphenyl]-4-carboxamide]
3 | 154 | Cc1cc2cc(CN3CCCC3)cnc2cc1NC(=O)c1ccc(-c2ccco2)cc1 [Example 224, 4-(2-furyl)-N-[6-methyl-3-(1-pyrrolidinylmethyl)-7-quinolinyl]benzamide]
4 | 186 to 188 | O=C(Nc1ccc2cc(CN3CCCC3)cnc2c1F)c1ccc(-c2ccccc2)cc1 [Example 71, N-[8-fluoro-3-(1-pyrrolidinylmethyl)-7-quinolinyl][1,1′-biphenyl]-4-carboxamide]
5 | 243 to 245 | CCNC(=O)CC1CCN(Cc2cnc3c(C)c(NC(=O)c4ccc(-c5ccc(F)cc5)cc4)ccc3c2)CC1 [Example 203, N-[3-({4-[2-(ethylamino)-2-oxoethyl]-1-piperidinyl}methyl)-8-methyl-7-quinolinyl]-4′-fluoro[1,1′-biphenyl]-4-carboxamide]
6 | 180 to 182 | COc1ccc(-c2ccc(C(=O)Nc3ccc4cc(CN5CCCC5)cnc4c3C)cn2)cc1 [Example 96, 6-(4-methoxyphenyl)-N-[8-methyl-3-(1-pyrrolidinylmethyl)-7-quinolinyl]nicotinamide]
7 | 228 to 230 | CCNC(=O)COC1CCN(Cc2cnc3cc(NC(=O)c4ccc(-c5ccc(F)cc5)cc4)ccc3c2)CC1 [Example 48, N-[3-({4-[2-(ethylamino)-2-oxoethoxy]-1-piperidinyl}methyl)-7-quinolinyl]-4′-fluoro[1,1′-biphenyl]-4-carboxamide]
8 | 193 to 194 | Cc1ccc(-c2ccc(C(=O)Nc3ccc4cc(CN5CCCC5)cnc4c3C)cc2F)cc1 [Example 155, 2-fluoro-4′-methyl-N-[8-methyl-3-(1-pyrrolidinylmethyl)-7-quinolinyl][1,1′-biphenyl]-4-carboxamide]
9 | 223 to 225 | O=C(Nc1ccc2cc(CN3CCCC3)cnc2c1)c1ccc(-c2ccc(Cl)cc2)nc1 [Example 11, 6-(4-chlorophenyl)-N-[3-(1-pyrrolidinylmethyl)-7-quinolinyl]nicotinamide]
10 | 173 | Cc1ccc(-c2ccc(C(=O)Nc3ccc4cc(CN5CCCC5)cnc4c3F)c(F)c2)cc1 [Example 278, 3-fluoro-N-[8-fluoro-3-(1-pyrrolidinylmethyl)-7-quinolinyl]-4′-methyl[1,1′-biphenyl]-4-carboxamide]
11 | 217 to 220 | O=C(Nc1ccc2cc(CN3CCCC3)cnc2c1)c1ccc(-c2ccc(Cl)cc2)cc1 [Example 6, 4′-chloro-N-[3-(1-pyrrolidinylmethyl)-7-quinolinyl][1,1′-biphenyl]-4-carboxamide]
12 | 258 to 260 | Cc1c(NC(=O)c2ccc(-c3ccc(F)cc3)cc2)ccc2cc(CN3CCC(CC(N)=O)CC3)cnc12 [Example 200, N-(3-{[4-(2-amino-2-oxoethyl)-1-piperidinyl]methyl}-8-methyl-7-quinolinyl)-4′-fluoro[1,1′-biphenyl]-4-carboxamide]
13 | 151 to 153 | Cc1c(NC(=O)c2ccc(-c3ccccc3)cc2F)ccc2cc(CN3CCCCCC3)cnc12 (hydrate or solvate) [Example 183, N-[3-(1-azepanylmethyl)-8-methyl-7-quinolinyl]-3-fluoro[1,1′-biphenyl]-4-carboxamide]
14 | 190 to 192 | Cc1c(NC(=O)c2ccc(-c3ccc(Cl)cc3)c(F)c2)ccc2cc(CN3CCCC3)cnc12 [Example 154, 4′-chloro-2-fluoro-N-[8-methyl-3-(1-pyrrolidinylmethyl)-7-quinolinyl][1,1′-biphenyl]-4-carboxamide]
